Legend:
Hep 3B = experiment: In vitro cytotoxicity, MTT assay, Hep 3B; format: cell-based; conditions: Homo sapiens, Hep3B, 72 h, read-out: IC50 ± SD
BEL-7402 = experiment: In vitro cytotoxicity, MTT assay, BEL-7402; format: cell-based; conditions: Homo sapiens, Bel-7402, 72 h, read-out: IC50 ± SD
Hep 3B cells = experiment: Cell proliferation by EdU incorporation; format: cell-based, human; conditions: 2 μM SN38 equivalent, 24 h
human HCC PDX tumors = experiment: Antitumor activity in human HCC PDX tumor model; format: in vivo, Balb/c nude mice; conditions: i.v. x3
[1] = Bloody diarrhea and intestinal damage study; format: in vivo, Balb/c mice
[2] = clinical; cited from earlier work
carboxylesterases = conditions: in the body, background statement; cited from earlier work
[3] = Pharmacokinetics after single i.v. injection; conditions: Sprague-Dawley, rat, in vivo, iv, 12 mg/kg
[4] = Drug loading and encapsulation efficiency by RP-HPLC; format: physicochemical; conditions: PEG5k-PLA8k NPs, matrices/SN38 feed weight ratio 19:1, n = 3
advanced HCC = conditions: patients with advanced HCC; cited from earlier work

AUC(0-inf) [3] | AUC(0-t) [3] | Cmax [3] | EE (encapsulation efficiency) [4] | Compound | IC50 (Hep 3B) | IC50 (BEL-7402) | Effect on proliferation (EdU incorporation) (Hep 3B cells) | Antitumor efficacy (human HCC PDX tumors) | Large intestine histology (H&E) ([1]; day 9, healthy Balb/c mice) | Onset of bloody diarrhea ([1]; healthy Balb/c mice, CPT-11 22.5 mg/kg i.v. x3) | Incidence of grade 3 or 4 diarrhea [2] | Enzymatic conversion to SN38, share of dosed CPT-11 (carboxylesterases) | Extension of median overall survival compared with a placebo (advanced HCC)
68900 ng·h/mL | 67600 ng·h/mL | 23800 ng/mL |  | CCc1c2c(nc3ccc(OC(=O)N4CCC(N5CCCCC5)CC4)cc13)-c1cc3c(c(=O)n1C2)COC(=O)[C@]3(O)CC [CPT-11, irinotecan] | 49.3 ± 3.3 µM | 42 ± 2.06 µM | negligible effect | moderate efficacy | destruction of these tissues by eliminating the glands and causing diffuse mucosal damage | 2 days | 31% | less than 8% | 
 |  |  | < 5% | CCc1c2c(nc3ccc(O)cc13)-c1cc3c(c(=O)n1C2)COC(=O)[C@]3(O)CC [SN38, 7-ethyl-10-hydroxycamptothecin] | 7.74 ± 1.18 µM | 2.76 ± 0.16 µM |  |  |  |  |  |  | 
 |  |  |  | CNC(=O)c1cc(Oc2ccc(NC(=O)Nc3ccc(Cl)c(C(F)(F)F)c3)cc2)ccn1 [sorafenib] |  |  |  |  |  |  |  |  | 2.8 months
